What was measured:
Type in all cases: cell-based, human
ESE-1 [1] = test: ESE-1 mRNA RT-PCR in RA synovial fibroblasts; details: 4th passage RA synovial fibroblasts
Procedure: Tissues from patients with rheumatoid arthritis (RA) were obtained as discarded materials from total joint replacement surgery or synovectomy. RA synovial tissue samples were cultured for the generation of adherent synovial fibroblasts. Dispersed synovial tissues were prepared by a previously published method (Goldring, S. R., et al. 1983. The synovial-like membrane at the bone-cement interface in loose total hip replacements and its proposed role in bone lysis. J Bone Joint Surg 65:575-84). Cells were subjected to 2-4 passages and stimulated with IL-1β (R&D Systems) at 100 pg/ml or with TNF-α (R&D Systems) at 5 ng/ml.
(§1) cDNAs were generated from 1 μg of total RNA using Ready-To-Go™ You-prime First-Strand Beads (Amersham Pharmacia Biotech Inc). RT-PCR amplifications of 0.1 μg cDNA were carried out using a MJResearch thermal cycler PTC-100 as follows: 5 min at 94° C., 20-37 cycles of 30 sec at 94° C., 30 sec at 56° C., and 30 sec at 72° C., followed by 5 min at 72° C. (Oettgen, P., et al. 2000, J Biol Chem 275:1216-25). The sequences of the human ESE-1 primers and the primers for human GAPDH were as described (Oettgen, P., et al. 1999, J Biol Chem 274:29439-52).
The synovium in RA is comprised of heterogeneous cell populations including monocyte/macrophages, lymphocytes and synovial fibroblasts. To evaluate whether ESE-1 expression in synovial fibroblasts is regulated by proinflammatory cytokines, 4th passage synovial fibroblasts isolated from RA synovium were stimulated for different times with IL-1β in the absence or presence of indomethacin. […] They also indicate that cytokine-induced prostaglandins may modulate steady state ESE-1 mRNA levels. […] We, therefore, focused our attention in further studies on IL-1β.

ESE-1 promoter = ESE-1 promoter luciferase construct (pXP2/ESE-1) transfection; details: U-138 MG cells; 16 h
Procedure: Cotransfections of 3-8×10^5 cells were carried out with 600 ng reporter gene construct DNA and 200 ng expression vector DNA using LipofectAMINE PLUS (Gibco-BRL) for 16 hours as described (Oettgen, P., et al. et al., 1997, Mol Cell Biol 17:4419-33). Transfections were performed independently in duplicate and repeated 3 to 4 times with different plasmid preparations with similar results.
To investigate the molecular mechanism by which IL-1 β and LPS regulate ESE-1 expression, we examined the response of an ESE-1 promoter luciferase construct after transfection using two cytokine responsive non-epithelial cell types, U-138 MG human glial cells and RAW 264.7 cells, a murine macrophage cell line (Oettgen, P., et al. 1999, Genomics 55:358-62). Whereas the parental pXP2 vector was not stimulated by IL-1β, in U-138 MG cells, IL-1β increased ESE-1 promoter activity up to 5-fold (FIG. 12a). Similarly, LPS enhanced ESE-1 promoter activity ˜9-fold in RAW 264.7 cells (FIG. 12b).

ESE-1 [2] = test: ESE-1 mRNA RT-PCR in immortalized chondrocytes T/C28a2, C28/I2, C20/A4; details: T/C28a2, C28/I2 and C20/A4 chondrocytes; 24 hours
Procedure: (§2) U-87 Mg and U-138 Mg (human glioma), THP-1 (human monocytic), RAW 264.7 (murine monocytic), LB-12 (human osteoblast-like large T antigen transformed bone marrow stromal cells), and human chondrocytes were grown and treated with cytokines as described (Apperley, J., et al. 1990. J Bone Mineral Res. 5:S93; Goldring, M. B., et al. 1994. J Clin Invest 94:2307-16; Goldring, S. R., et al. 1983. J Bone Joint Surg 65:575-84; Libermann, T. A., et al. 1987. Embo J. 6:1627-1632).
as §1
To test the hypothesis that ESE-1 is a mediator of cytokine responses in non-epithelial cell types, we analyzed ESE-1 expression in response to a variety of cytokines in several connective tissue cell types. Immortalized human chondrocytes, T/C28a2, C28/I2, and C20/A4 (Goldring, M. B., et al. 1994, J Clin Invest 94:2307-16), were stimulated with IL-1β, TNF-α and IFN-γ for 24 hours. […] The kinetics of ESE-1 induction was explored in a time course experiment with T/ C28a2 chondrocytes.

ESE-1 [3] = test: ESE-1 mRNA Northern blot in LB-12 osteoblasts; details: LB-12 cells; 1, 2, 6, 24 hours
Procedure: as §2
Total RNA was harvested using QIAshreder (Qiagen) and RNeasy® Mini Kit (Quiagen) or Trizol (Gibco BRL). Poly A^+ RNA was prepared with MicroPoly(A) Pure (Ambion). Northern blots (5 μg total RNA) were hybridized using a full length ESE-1 cDNA probe as described (Oettgen, P., et al. et al. 1997, Mol Cell Biol 17:4419-33.).
Osteoblasts, the bone cells responsible for bone formation, represent another connective tissue cell target of inflammatory cytokines in joint disorders (Bogoch, E. R., and E. Moran. 1998, Can J Surg 41:264-71). […] LB-12 cells were incubated for different times in the absence or presence of IL-1β. […] Since the rapid, but transient induction of ESE-1 resembles that of immediate early genes, we tested the effect of the protein synthesis inhibitor cycloheximide which superinduces expression of certain genes due to mRNA stabilization. Cycloheximide alone had no effect, but superinduced IL-1β-mediated ESE-1 mRNA expression (FIG. 11d).

ESE-1 [4] = test: ESE-1 mRNA RT-PCR in glioma cells (U-138 MG, U-373 MG); details: U-138 MG and U-373 MG glioma cells
Procedure: as §2, §1
U-138 MG cells were infected with the IκB adenovirus (kindly provided by Fionula Brennan) (Bondeson, J., et al. 1999, Proc Natl Acad Sci U S A 96:5668-73) for 1 hour in serum-free medium using a multiple of infection of 1000. After infection the cells were washed with medium and incubated for 16 hours in DMEM containing 10% fetal calf serum in the absence or presence of IL-1β. […]

Substance: IL-1β: interleukin-1 beta, proinflammatory cytokine
- ESE-1 mRNA expression, agent alone (ESE-1 [1]): strongly induced transient ESE-1 expression
- increase in ESE-1 promoter activity (ESE-1 promoter): up to 5 fold
- ESE-1 expression (ESE-1 [2]): induced ESE-1 expression in all chondrocyte cell lines
- ESE-1 mRNA expression, agent alone (ESE-1 [3]): rapidly induced
- ESE-1 expression (ESE-1 [4]): rapidly induced transient expression

— patent US6869929B2, “Use of transcription factors for treating inflammation and other diseases” (Beth Israel Deaconess Medical Center, priority 2000, dated 2005)
